Measured values taken from US20150165033A1, “COMPOSITION FOR NASAL APPLICATION” (BBU-VITA CORP., priority 2012, published 2015).

Tests used:
[1] = test system: catalepsy caused by a single intraperitoneal injection of haloperidol; assay: Spontaneous motor activity in the test "Open Field", catalepsy caused by haloperidol; format: in vivo; settings: sum of movements in Open Field; haloperidol 0.25 mg/kg i.p. alone; male rats
Protocol: The restoration of spontaneous motor activity in rats as the sum of the movements in the test “Open Field” in the experimental model of a catalepsy caused by a single intraperitoneal (i.p.) injection of haloperidol (0.25 mg/kg, “Ratiopharm,” Germany). Dopamine (0.125 mg/kg, Polfa S.A. (Poland) was administered nasally in 50 μl in the solution of the spray once in each nostril in combination with the oxygen anion radicals (SAR) and/or the active substances of the nitrogen oxide according to the present invention (Group IV, “Composition 1”). The experiments were performed on non-purebred male rats having a body mass of 250±37 g.

duration of sleep = assay: Narcotic action of phenobarbital, duration of sleep; format: in vivo; settings: phenobarbital control 150 mg/kg
Excerpt: The enhancement of the narcotic effect of the barbiturate phenobarbital in “Composition 3,” administered nasally.

Structure (SMILES) | Spontaneous Activity [1] | Duration of sleep (duration of sleep)
O=C(CCCN1CCC(O)(c2ccc(Cl)cc2)CC1)c1ccc(F)cc1 [Haloperidol, haloperidol] | 3.6 ± 3.4 | –
CCC1(c2ccccc2)C(=O)NC(=O)NC1=O [Phenobarbital, phenobarbital] | – | 192 ± 29.9 min
